From patent US20230132526A1 (Institute of Materia Medica, Chinese Academy of Medical …, priority 2020, published 2023)

Legend:
phosphorylated Akt = test: Level of phosphorylated Akt by western blotting in primary mouse hepatocytes treated with EphB4 inhibitor; format: cell-based; conditions: LCA 10 μM and 20 μM overnight, 10 nM insulin 20 min before collection, western blotting (FIG. 2C)
Procedure: After the liver tissue was fully digested, it was suspended with DMEM medium, flew through a cell sieve with a diameter of 70 μm, and was centrifugated, thereby the primary hepatocytes were obtained. The cells were resuspended in complete culture medium and dispersed into a petri dish or plate. After the cells were attached, they were treated with LCA (10 μM and 20 μM) overnight.

flag-InsR = test: Protein level of flag-InsR by Western blotting in HEK293T cells co-expressing insulin receptor and EphB4, treated with degradation pathway inhibitors; format: cell-based; conditions: HEK293T cells co-expressing flag-InsR and EphB4-HA; ammonium chloride 5 mM, chloroquine 10 μM, 8 h; Western blotting (FIG. 2B)
Procedure: GFP was co-transfected as a reference for foreign proteins. The cells were treated with proteasome degradation pathway inhibitor MG132 (10 μM), lysosome degradation pathway inhibitor ammonium chloride (5 mM) and chloroquine (10 μM) for 8 h.

SMILES | level of phosphorylated Akt (phosphorylated Akt) | protein level of flag-InsR (effect on EphB4-promoted insulin receptor degradation) (flag-InsR)
C[C@H](CCC(=O)O)[C@H]1CC[C@H]2[C@@H]3CC[C@@H]4C[C@H](O)CC[C@]4(C)[C@H]3CC[C@]12C [LCA, 3α-hydroxy-5β-cholanoic acid] | increase the level of phosphorylated Akt | –
Cl.N [ammonium chloride, Ammonium chloride] | – | partially rescue the promoting effect of EphB4 on insulin receptor degradation to some extent
CCN(CC)CCCC(C)Nc1ccnc2cc(Cl)ccc12 (stereo not drawn) [chloroquine] | – | partially rescue the promoting effect of EphB4 on insulin receptor degradation to some extent
